# Reference: patent US20220000798A1, “TRANS-RESVERATROL TOPICAL MEDICATION FOR THE TREATMENT OF PAIN AND METHOD OF MANUFACTURE THEREOF” (Ted's Brain Science, Inc., priority 2017, published 2022)
# What was measured:
# AMPK = AMPK activation by resveratrol isomers; assay type: biochemical; settings: isomer of resveratrol
# Text: It is thus realized herein that including cis-resveratrol in a topical medication would be particularly disadvantageous, because it would contribute to the grainy or greasy feeling of the medication without contributing to its AMPK-activating efficacy.
# pain = settings: animal model (rodents); administration by injection; cited from earlier work
# [1] = storage stability of trans-resveratrol powder; assay type: physicochemical; settings: well-sealed containers kept away from light
# Method: In one embodiment, trans-resveratrol is prepared in the form of off-white to cream-colored powder with >99% purity as determined by high-performance liquid chromatography (HPLC) methodology. The resulting powder has a melting point of 260-264° C.
structure (smiles),measurement,setting,value
Oc1ccc(/C=C\c2cc(O)cc(O)c2)cc1 [Cis-resveratrol],AMPK activation,AMPK,appears not to activate AMPK to any meaningful degree or extent
Oc1ccc(C=Cc2cc(O)cc(O)c2)cc1 [resveratrol],efficacy in mitigation of pain,pain,has shown efficacy in mitigation of pain
"Oc1ccc(/C=C/c2cc(O)cc(O)c2)cc1 [trans-resveratrol, 3,4′,5-trihydroxystilbene]",AMPK activation,AMPK,activates AMPK
same,stability over time,[1],over two years
